Measured values taken from PubChem BioAssay (NCI).
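Cells were grown in 96-well plates and exposed to each compound for 48 hours at five concentrations; endpoints were interpolated linearly between bracketing concentrations, or set to the highest concentration if not reached. Here, GI50 denotes the concentration required for 50% inhibition of growth. At the TGI there is no net growth.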

What was measured:
Assay in all cases: growth of human tumour cells (NCI), 48 h
HS 578T breast = system: HS 578T breast
UACC-257 melanoma = system: UACC-257 melanoma
IGROV1 ovarian = system: IGROV1 ovarian
NCI-H522 lung = system: NCI-H522 lung
SF-268 CNS = system: SF-268 CNS
OVCAR-5 ovarian = system: OVCAR-5 ovarian
ACHN renal = system: ACHN renal
U251 CNS = system: U251 CNS
NCI-H226 lung = system: NCI-H226 lung
HOP-92 NSCLC = system: HOP-92 NSCLC
SR leukemia = system: SR leukemia
LOX IMVI melanoma = system: LOX IMVI melanoma
OVCAR-4 ovarian = system: OVCAR-4 ovarian
SK-OV-3 ovarian = system: SK-OV-3 ovarian
SF-295 CNS = system: SF-295 CNS
SK-MEL-28 melanoma = system: SK-MEL-28 melanoma
HCT-116 colon = system: HCT-116 colon
PC-3 prostate = system: PC-3 prostate
MOLT-4 leukemia = system: MOLT-4 leukemia
SNB-75 CNS = system: SNB-75 CNS
HT29 colon = system: HT29 colon
SW-620 colon = system: SW-620 colon
M14 melanoma = system: M14 melanoma
SK-MEL-5 melanoma = system: SK-MEL-5 melanoma
CAKI-1 renal = system: CAKI-1 renal
NCI/ADR-RES ovarian = system: NCI/ADR-RES ovarian
COLO 205 colon = system: COLO 205 colon
OVCAR-8 ovarian = system: OVCAR-8 ovarian
T-47D breast = system: T-47D breast
DU-145 prostate = system: DU-145 prostate
MCF7 breast = system: MCF7 breast
OVCAR-3 ovarian = system: OVCAR-3 ovarian
SF-539 CNS = system: SF-539 CNS
EKVX NSCLC = system: EKVX NSCLC
NCI-H460 lung = system: NCI-H460 lung
786-0 renal = system: 786-0 renal
HCC-2998 colon = system: HCC-2998 colon
BT-549 breast = system: BT-549 breast
HOP-62 NSCLC = system: HOP-62 NSCLC
K-562 leukemia = system: K-562 leukemia
MALME-3M melanoma = system: MALME-3M melanoma
MDA-MB-231 breast = system: MDA-MB-231 breast
SK-MEL-2 melanoma = system: SK-MEL-2 melanoma
HL-60(TB) leukemia = system: HL-60(TB) leukemia
UACC-62 melanoma = system: UACC-62 melanoma
TK-10 renal = system: TK-10 renal
UO-31 renal = system: UO-31 renal
MDA-MB-435 = system: MDA-MB-435
SN12C renal = system: SN12C renal
NCI-H23 lung = system: NCI-H23 lung
A549 NSCLC = system: A549 NSCLC
KM12 colon = system: KM12 colon
RPMI-8226 leukemia = system: RPMI-8226 leukemia
RXF 393 renal = system: RXF 393 renal
SNB-19 CNS = system: SNB-19 CNS
HCT-15 colon = system: HCT-15 colon
A498 renal = system: A498 renal
CCRF-CEM leukemia = system: CCRF-CEM leukemia
MDA-N = system: MDA-N

COc1cc(NCc2ccccc2O)c2ncccc2c1
GI50 (HS 578T breast): 24.2 µM | TGI (HS 578T breast): > 100 µM | GI50 (UACC-257 melanoma): 19.5 µM | TGI (UACC-257 melanoma): 70.7 µM | GI50 (IGROV1 ovarian): 13.7 µM | TGI (IGROV1 ovarian): 56.2 µM | GI50 (NCI-H522 lung): 10.1 µM | TGI (NCI-H522 lung): 43 µM | GI50 (SF-268 CNS): 22.5 µM | TGI (SF-268 CNS): > 100 µM | GI50 (OVCAR-5 ovarian): 80.3 µM | TGI (OVCAR-5 ovarian): > 100 µM | GI50 (ACHN renal): 26.8 µM | TGI (ACHN renal): > 100 µM | GI50 (U251 CNS): 23.7 µM | TGI (U251 CNS): > 100 µM | GI50 (NCI-H226 lung): 20.8 µM | TGI (NCI-H226 lung): > 100 µM | GI50 (HOP-92 NSCLC): 3.83 µM | TGI (HOP-92 NSCLC): 30.3 µM | GI50 (SR leukemia): 5.91 µM | TGI (SR leukemia): 58.3 µM | GI50 (LOX IMVI melanoma): 17.1 µM | TGI (LOX IMVI melanoma): 67.3 µM | GI50 (OVCAR-4 ovarian): 13.7 µM | TGI (OVCAR-4 ovarian): > 100 µM | GI50 (SK-OV-3 ovarian): 20.2 µM | TGI (SK-OV-3 ovarian): 50 µM | GI50 (SF-295 CNS): 20.6 µM | TGI (SF-295 CNS): 67.4 µM | GI50 (SK-MEL-28 melanoma): 21.3 µM | TGI (SK-MEL-28 melanoma): 80.2 µM | GI50 (HCT-116 colon): 16.6 µM | TGI (HCT-116 colon): 63.4 µM | GI50 (PC-3 prostate): 10.6 µM | TGI (PC-3 prostate): 90.6 µM | GI50 (MOLT-4 leukemia): 18.9 µM | TGI (MOLT-4 leukemia): > 100 µM | GI50 (SNB-75 CNS): 8.52 µM | TGI (SNB-75 CNS): 59.3 µM | GI50 (HT29 colon): 19.4 µM | TGI (HT29 colon): 94.1 µM | GI50 (SW-620 colon): 32.2 µM | TGI (SW-620 colon): > 100 µM | GI50 (M14 melanoma): 19 µM | TGI (M14 melanoma): 53.6 µM | GI50 (SK-MEL-5 melanoma): 10.1 µM | TGI (SK-MEL-5 melanoma): 23.4 µM | GI50 (CAKI-1 renal): 6.02 µM | TGI (CAKI-1 renal): 34.1 µM | GI50 (NCI/ADR-RES ovarian): 23.2 µM | TGI (NCI/ADR-RES ovarian): 85.3 µM | GI50 (COLO 205 colon): 19.7 µM | TGI (COLO 205 colon): 77.2 µM | GI50 (OVCAR-8 ovarian): 25.4 µM | TGI (OVCAR-8 ovarian): > 100 µM | GI50 (T-47D breast): 20.4 µM | TGI (T-47D breast): > 100 µM | GI50 (DU-145 prostate): 41.7 µM | TGI (DU-145 prostate): > 100 µM | GI50 (MCF7 breast): 24.4 µM | TGI (MCF7 breast): > 100 µM | GI50 (OVCAR-3 ovarian): 20.6 µM | TGI (OVCAR-3 ovarian): 84.5 µM | GI50 (SF-539 CNS): 21 µM | TGI (SF-539 CNS): > 100 µM | GI50 (EKVX NSCLC): 19 µM | TGI (EKVX NSCLC): 80.8 µM | GI50 (NCI-H460 lung): 15.8 µM | TGI (NCI-H460 lung): > 100 µM | GI50 (786-0 renal): 29.8 µM | TGI (786-0 renal): > 100 µM | GI50 (HCC-2998 colon): 42.6 µM | TGI (HCC-2998 colon): > 100 µM | GI50 (BT-549 breast): 16.6 µM | TGI (BT-549 breast): 55 µM | GI50 (HOP-62 NSCLC): 19.7 µM | TGI (HOP-62 NSCLC): > 100 µM | GI50 (K-562 leukemia): 17.2 µM | TGI (K-562 leukemia): > 100 µM | GI50 (MALME-3M melanoma): 14 µM | TGI (MALME-3M melanoma): 44.4 µM | GI50 (MDA-MB-231 breast): 14.3 µM | TGI (MDA-MB-231 breast): > 100 µM | GI50 (SK-MEL-2 melanoma): 18.1 µM | TGI (SK-MEL-2 melanoma): 50.3 µM | GI50 (HL-60(TB) leukemia): 18.5 µM | TGI (HL-60(TB) leukemia): 57 µM | GI50 (UACC-62 melanoma): 11.2 µM | TGI (UACC-62 melanoma): 53.1 µM | GI50 (TK-10 renal): 26.5 µM | TGI (TK-10 renal): > 100 µM | GI50 (UO-31 renal): 7.17 µM | TGI (UO-31 renal): 75.8 µM | GI50 (MDA-MB-435): 11.6 µM | TGI (MDA-MB-435): 37.9 µM | GI50 (SN12C renal): 34 µM | TGI (SN12C renal): > 100 µM | GI50 (NCI-H23 lung): 22.5 µM | TGI (NCI-H23 lung): 97.3 µM | GI50 (A549 NSCLC): 49.1 µM | TGI (A549 NSCLC): > 100 µM | GI50 (KM12 colon): 22.5 µM | TGI (KM12 colon): > 100 µM | GI50 (RPMI-8226 leukemia): 11.8 µM | TGI (RPMI-8226 leukemia): 79.5 µM | GI50 (RXF 393 renal): 18.5 µM | TGI (RXF 393 renal): 68.8 µM | GI50 (SNB-19 CNS): 31.8 µM | TGI (SNB-19 CNS): > 100 µM | GI50 (HCT-15 colon): 7.09 µM | TGI (HCT-15 colon): > 100 µM | GI50 (A498 renal): 13.2 µM | TGI (A498 renal): 60.5 µM | GI50 (CCRF-CEM leukemia): 17 µM | TGI (CCRF-CEM leukemia): > 100 µM

COC(=O)C1ON2C(C1C(=O)OC)C(C)(C)N(O)C2(C)C (configuration not stated)
TGI (IGROV1 ovarian): > 10 µM | TGI (SF-268 CNS): > 10 µM | TGI (OVCAR-5 ovarian): > 10 µM | TGI (ACHN renal): > 10 µM | TGI (U251 CNS): > 10 µM | TGI (NCI-H226 lung): > 10 µM | TGI (HOP-92 NSCLC): > 10 µM | TGI (OVCAR-4 ovarian): > 10 µM | TGI (SF-295 CNS): > 10 µM | TGI (SK-MEL-28 melanoma): > 10 µM | TGI (HCT-116 colon): > 10 µM | TGI (PC-3 prostate): > 10 µM | TGI (MDA-N): > 10 µM | TGI (SNB-75 CNS): > 10 µM | TGI (HT29 colon): > 10 µM | TGI (SW-620 colon): > 10 µM | TGI (M14 melanoma): > 10 µM | TGI (SK-MEL-5 melanoma): > 10 µM | TGI (CAKI-1 renal): > 10 µM | TGI (NCI/ADR-RES ovarian): > 10 µM | TGI (COLO 205 colon): > 10 µM | TGI (OVCAR-8 ovarian): > 10 µM | TGI (DU-145 prostate): > 10 µM | TGI (OVCAR-3 ovarian): > 10 µM | TGI (SF-539 CNS): > 10 µM | TGI (EKVX NSCLC): > 10 µM | TGI (MDA-MB-231 breast): > 10 µM | TGI (TK-10 renal): > 10 µM | TGI (MDA-MB-435): > 10 µM | TGI (SN12C renal): > 10 µM | TGI (NCI-H23 lung): > 10 µM | TGI (A549 NSCLC): > 10 µM | TGI (KM12 colon): > 10 µM | TGI (RXF 393 renal): > 10 µM | TGI (SNB-19 CNS): > 10 µM | TGI (HCT-15 colon): > 10 µM
